In one data set the test system is MDCK-MDR1 monolayers. Description: BBB permeability, bidirectional transport through MDCK-MDR1 monolayers. The settings on record: 10 μM test article, single determination.
The test system of the next data set is OX1. The conditions noted are these: cited from earlier work.
In another data set the target is T1, human OX1 receptor (Homo sapiens, UniProt O43613).
T1 sequence (O43613 1-425): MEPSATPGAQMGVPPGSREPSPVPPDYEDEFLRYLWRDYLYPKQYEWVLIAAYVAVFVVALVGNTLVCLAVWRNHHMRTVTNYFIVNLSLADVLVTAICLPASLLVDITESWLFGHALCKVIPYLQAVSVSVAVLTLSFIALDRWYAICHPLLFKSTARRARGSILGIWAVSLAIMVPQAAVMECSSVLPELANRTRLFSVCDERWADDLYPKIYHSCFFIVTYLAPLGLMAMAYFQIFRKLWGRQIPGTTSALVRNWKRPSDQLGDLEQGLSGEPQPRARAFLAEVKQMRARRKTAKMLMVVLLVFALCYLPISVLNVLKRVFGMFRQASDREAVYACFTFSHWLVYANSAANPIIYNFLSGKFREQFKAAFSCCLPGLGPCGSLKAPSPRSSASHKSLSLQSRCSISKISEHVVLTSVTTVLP
The experiment in a line: Calcium mobilization Ke assay, OX1. Format: cell-based. The settings on record: for OX2/OX1: ratio of Ke values OX2/OX1. A general note: Calcium flux is commonly read through the fluorescence of an indicator in the cells.

The next data set concerns P-glycoprotein (MDR1). The experiment in a line: BBB permeability, bidirectional transport through MDCK-MDR1 monolayers. The conditions noted are these: dog, MDCK-MDR1, pH 7.4.
A further data set has as its target T2, human OX2 receptor (Homo sapiens, UniProt O43614).
T2 sequence (O43614 1-444): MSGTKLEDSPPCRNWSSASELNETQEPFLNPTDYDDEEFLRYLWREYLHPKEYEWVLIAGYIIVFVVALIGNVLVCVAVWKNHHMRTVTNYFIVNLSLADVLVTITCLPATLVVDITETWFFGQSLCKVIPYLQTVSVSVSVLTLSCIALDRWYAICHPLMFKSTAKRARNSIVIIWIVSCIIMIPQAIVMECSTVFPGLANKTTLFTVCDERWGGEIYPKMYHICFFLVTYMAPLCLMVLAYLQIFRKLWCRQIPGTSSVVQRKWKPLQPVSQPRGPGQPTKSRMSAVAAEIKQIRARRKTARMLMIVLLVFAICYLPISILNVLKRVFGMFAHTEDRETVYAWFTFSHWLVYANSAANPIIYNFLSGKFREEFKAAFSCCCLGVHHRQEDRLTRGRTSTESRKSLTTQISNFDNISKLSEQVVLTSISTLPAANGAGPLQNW
The experiment in a line: Calcium mobilization Ke assay, OX2. Format: cell-based. The settings on record: for inhibition at 10 µM: read-out: Ke (OX2, nM) column: inhibition at 10 μM final concentration.

The nature of data set [1]: Kinetic solubility in PBS pH 7.4. The settings on record: pH 7.4, aqueous buffer, kinetic from dmso stock. The data set is classed as physicochemical.

Where “and” joins values, the source holds several entries; their conditions need not be identical. Equal entries are not always repeated. Where two headings read alike, the source gives them in different places.

With `COc1ccc(CC2c3cc(OCC(F)(F)F)c(OC)cc3CCN2CC(=O)NCc2cccnc2)cc1OC` (stereo not shown) [Compound 5, reference compound], in the data set on MDCK-MDR1 monolayers (MDCK-MDR1, apical-to-basolateral), the “Papp A-to-B” value is listed as 12.2 10^−6 cm/sec. Moreover, the “Papp B-to-A” value in the data set on MDCK-MDR1 monolayers (MDCK-MDR1, basolateral-to-apical) is 36.2 10^−6 cm/sec.
In the case of `Cc1nc2ccc(NC(=O)Nc3ccnc4cccnc34)cc2o1` [SB334867], the “selectivity over OX2” value in the data set with OX1 is reported as 50 ×; in the data set on OX1 (listed as 3), ~ 50 ×. Besides, the 50% inhibitory concentration (IC50) with OX1 (read-out: IC50 (OX1), commonly used OX1 antagonist) is 40 nM.
Regarding `COc1ccc(CC2c3cc(N(C)C)c(OC)cc3CCN2CC(=O)NCc2cccnc2)cc1N(C)C` (stereo not shown) [Compound 44, 2-[7-(Dimethylamino)-1-{[3-(dimethylamino)-4-methoxyphenyl]methyl}-6-methoxy-1,2,3,4-tetrahydroisoquinolin-2-yl]-N-(pyridin-3-ylmethyl)acetamide], at human OX1 receptor, the dissociation constant Kd was 5.7 ± 1 nM and the OX2/OX1 is >1,760. The “selectivity over OX2” value on human OX1 receptor (OX1 over OX2, calcium mobilization assays) is > 1,760 fold and > 1,000 fold. Further, in the data set on P-glycoprotein (MDR1), the apical-to-basolateral permeability (Papp A→B) at 90 min, 10 μM is 14.7 ×10⁻⁶ cm/s; the Papp B→A at 90 min, 10 μM was 47.8 ×10⁻⁶ cm/s; the efflux ratio at 90 min, 10 μM stood at 3.3. Moreover, the Kd at human OX2 receptor was above 10000 nM. Besides, the solubility (kinetic) at 2 h in data set [1] is above 200 µM.
With `COc1cc2c(cc1OCC(F)(F)F)C(Cc1ccc3ccccc3c1)N(CC(=O)NCc1cccnc1)CC2` (stereo not shown) [Compound 15a, 2-[6-Methoxy-1-(naphthalen-2-ylmethyl)-7-(2,2,2-trifluoroethoxy)-1,2,3,4-tetrahydroisoquinolin-2-yl]-N-(pyridin-3-ylmethyl)acetamide], on human OX1 receptor, the equilibrium dissociation constant (Kd) was determined as 29.5 ± 2.2 nM and the OX2/OX1 is on record as 59. In addition, the equilibrium dissociation constant (Kd) at human OX2 receptor amounted to 1750 ± 230 nM.
As to `CCCC(=O)Nc1cc2c(cc1OC)CCN(CC(=O)NCc1ccccc1)C2Cc1ccc(OC)c(OC)c1` (stereo not shown) [Compound 34e, N-{2-[(Benzylcarbamoyl)methyl]-1-[(3,4-dimethoxyphenyl)methyl]-6-methoxy-1,2,3,4-tetrahydroisoquinolin-7-yl}butanamide], at human OX1 receptor, the Kd turned out to be 689 ± 73 nM and the OX2/OX1 is above 14.5. Further, at human OX2 receptor, the equilibrium dissociation constant (Kd) is above 10000 nM.
As to `COc1cc2c(cc1OCC(F)(F)F)C(Cc1ccccn1)N(CC(=O)NCc1ccccc1)CC2` (stereo not shown) [Compound 19a, N-Benzyl-2-[6-methoxy-1-(pyridin-2-ylmethyl)-7-(2,2,2-trifluoroethoxy)-1,2,3,4-tetrahydroisoquinolin-2-yl]acetamide], at human OX1 receptor (Ke (OX1, nM), compound appeared insurmountable during standard assay procedure, incubation increased to 1 hour), the Kd is 884 ± 70 nM. Further, the OX2/OX1 at human OX1 receptor is listed as above 11. Further, the inhibition at 10 µM at human OX2 receptor was below 50%.
Take `COc1cc2c(cc1NC(C)=O)C(Cc1ccc(OC)c(OC)c1)N(CC(=O)NCc1ccccc1)CC2` (stereo not shown) [Compound 34c, N-Benzyl-2-{1-[(3,4-dimethoxyphenyl)methyl]-7-acetamido-6-methoxy-1,2,3,4-tetrahydroisoquinolin-2-yl}acetamide]: the results for the Kd on human OX1 receptor and on human OX2 receptor were 116 ± 44 nM and above 10000 nM, respectively. In addition, the OX2/OX1 at human OX1 receptor is above 86.
With `CCCOc1cc2c(cc1OC)CCN(CC(=O)NCc1ccccc1)C2Cc1ccc2ccccc2c1` (stereo not shown) [Compound 12a, N-Benzyl-2-[6-methoxy-1-(naphthalen-2-ylmethyl)-7-propoxy-1,2,3,4-tetrahydroisoquinolin-2-yl]acetamide], on human OX1 receptor, the Kd was determined as 121 ± 35 nM and the OX2/OX1 was above 82.6. Besides, on human OX2 receptor, the inhibition at 10 µM is below 50%.

One may read the IC50 as the concentration that gives 50% inhibition. In general, Kd refers to the equilibrium constant for the complex coming apart. In general, Papp A→B refers to how fast a substance crosses the layer from the apical side. Read a low Papp A→B as poor permeation. In general, Papp B→A refers to the apparent permeability from the basolateral to the apical side of a cell layer. By efflux ratio is commonly meant the permeability from basolateral to apical divided by that in the opposite direction, in the common usage. As a reminder, the kinetic solubility is the concentration staying in solution when a stock, usually in DMSO, is diluted into the medium.
